Reference: ChEMBL document CHEMBL5154776, “Discovery of Potent and Orally Bioavailable Platelet-Derived Growth Factor Receptor (PDGFR) Inhibitors for the Treatment of Osteosarcoma” (J Med Chem, 2022)
pIC50: −log10 of the molar value.

Assays:
[1] = Toxicity in C57/BL6 mouse assessed as change in heart weight at 40 to 80 mg/kg/day, po dosed for 10 days; assay type: organism-based; settings: in vivo, 240 h, dose 40-80 mg/kg/day, time 10 day
[2] = Cmax in Sprague-Dawley rat at 4 mg/kg, ip measured at 0.08 to 8 hrs by UHPLC-MS/MS analysis; assay type: ADME, organism-based; design: time lower 0.08 hrs, dose 4 mg/kg, time upper 8 hrs, route ip; settings: in vivo
[3] = Cmax in Sprague-Dawley rat at 20 mg/kg, po measured at 0.033 to 48 hrs by UHPLC-MS/MS analysis; assay type: ADME, organism-based; design: dose 20 mg/kg, time upper 48 hrs, time lower 0.033 hrs, route po; settings: in vivo
[4] = Half life in Sprague-Dawley rat at 4 mg/kg, ip measured at 0.08 to 8 hrs by UHPLC-MS/MS analysis; assay type: ADME, organism-based; settings: in vivo, time 0.08-8 hrs
[5] = Half life in Sprague-Dawley rat at 20 mg/kg, po measured at 0.033 to 48 hrs by UHPLC-MS/MS analysis; assay type: ADME, organism-based; settings: in vivo, time 0.033-48 hrs
[6] = AUC(0 to infinity) in Sprague-Dawley rat at 4 mg/kg, ip measured at 0.08 to 8 hrs by UHPLC-MS/MS analysis; assay type: ADME, organism-based; design: dose 4 mg/kg, time 0.08-8 hrs, route ip; settings: in vivo
[7] = AUC(0 to infinity) in Sprague-Dawley rat at 20 mg/kg, po measured at 0.033 to 48 hrs by UHPLC-MS/MS analysis; assay type: ADME, organism-based; design: dose 20 mg/kg, time 0.033-48 hrs, route po; settings: in vivo
[8] = Oral bioavailability in Sprague-Dawley rat at 20 mg/kg measured at 0.033 to 48 hrs by UHPLC-MS/MS analysis; assay type: ADME, organism-based; settings: in vivo, time 0.033-48 hrs
[9] = Toxicity in C57/BL6 mouse assessed as tolerability at 40 to 80 mg/kg/day, po dosed for 10 days; assay type: organism-based; settings: in vivo, 240 h, dose 40-80 mg/kg/day, time 10 day
[10] = Toxicity in C57/BL6 mouse assessed as change in body weight at 40 to 80 mg/kg/day, po dosed for 10 days; assay type: organism-based; settings: in vivo, 240 h, dose 40-80 mg/kg/day, time 10 day
[11] = Toxicity in C57/BL6 mouse assessed as change in lung weight at 40 to 80 mg/kg/day, po dosed for 10 days; assay type: organism-based; settings: in vivo, 240 h, dose 40-80 mg/kg/day, time 10 day
[12] = Toxicity in C57/BL6 mouse assessed as change in liver weight at 40 to 80 mg/kg/day, po dosed for 10 days; assay type: organism-based; settings: in vivo, 240 h, dose 40-80 mg/kg/day, time 10 day
[13] = Toxicity in C57/BL6 mouse assessed as change in spleen weight at 40 to 80 mg/kg/day, po dosed for 10 days; assay type: organism-based; settings: in vivo, 240 h, dose 40-80 mg/kg/day, time 10 day
[14] = Toxicity in C57/BL6 mouse assessed as change in kidney weight at 40 to 80 mg/kg/day, po dosed for 10 days; assay type: organism-based; settings: in vivo, 240 h, dose 40-80 mg/kg/day, time 10 day
[15] = Hepatotoxicity in C57/BL6 mouse assessed as effect on alanine aminotransferase level at 40 to 80 mg/kg/day, po dosed for 10 days by liver function test; assay type: toxicity, organism-based; settings: in vivo, 240 h, dose 40-80 mg/kg/day, time 10 day
[16] = Hepatotoxicity in C57/BL6 mouse assessed as effect on aspartate aminotransferase level at 40 to 80 mg/kg/day, po dosed for 10 days by liver function test; assay type: toxicity, organism-based; settings: in vivo, 240 h, dose 40-80 mg/kg/day, time 10 day
[17] = Nephrotoxicity in C57/BL6 mouse assessed as effect on creatinine level at 40 to 80 mg/kg/day, po dosed for 10 days by kidney function test; assay type: toxicity, organism-based; settings: in vivo, 240 h, dose 40-80 mg/kg/day, time 10 day
[18] = Toxicity in C57/BL6 mouse assessed as histopathological change in kidney at 40 to 80 mg/kg/day, po dosed for 10 days by Hematoxylin and eosin based staining analysis; assay type: organism-based; settings: in vivo, 240 h, dose 40-80 mg/kg/day, time 10 day
[19] = Toxicity in C57/BL6 mouse assessed as histopathological change in liver at 40 to 80 mg/kg/day, po dosed for 10 days by Hematoxylin and eosin based staining analysis; assay type: organism-based; settings: in vivo, 240 h, dose 40-80 mg/kg/day, time 10 day
[20] = Toxicity in BALB/c nude mouse xenograted with human MNNG/HOS cells assessed as effect on body weight at 15 to 30 mg/kg/day, po dosed for 14 days; assay type: organism-based, HOS-TE85; settings: in vivo, 336 h, dose 15-30 mg/kg/day, time 14 day
[21] = Toxicity in BALB/c nude mouse xenograted with human MNNG/HOS cells assessed as effect on heart weight at 15 to 30 mg/kg/day, po dosed for 14 days; assay type: organism-based, HOS-TE85; settings: in vivo, 336 h, dose 15-30 mg/kg/day, time 14 day
[22] = Toxicity in BALB/c nude mouse xenograted with human MNNG/HOS cells assessed as effect on lung weight at 15 to 30 mg/kg/day, po dosed for 14 days; assay type: organism-based, HOS-TE85; settings: in vivo, 336 h, dose 15-30 mg/kg/day, time 14 day
[23] = Toxicity in BALB/c nude mouse xenograted with human MNNG/HOS cells assessed as effect on liver weight at 15 to 30 mg/kg/day, po dosed for 14 days; assay type: organism-based, HOS-TE85; settings: in vivo, 336 h, dose 15-30 mg/kg/day, time 14 day
[24] = Toxicity in BALB/c nude mouse xenograted with human MNNG/HOS cells assessed as effect on spleen weight at 15 to 30 mg/kg/day, po dosed for 14 days; assay type: organism-based, HOS-TE85; settings: in vivo, 336 h, dose 15-30 mg/kg/day, time 14 day
[25] = Toxicity in BALB/c nude mouse xenograted with human MNNG/HOS cells assessed as effect on kidney weight at 15 to 30 mg/kg/day, po dosed for 14 days; assay type: organism-based, HOS-TE85; settings: in vivo, 336 h, dose 15-30 mg/kg/day, time 14 day
[26] = Toxicity in BALB/c nude mouse xenograted with human MNNG/HOS cells assessed as morphological change in liver at 15 to 30 mg/kg/day, po for 14 days by hematoxylin and eosin staining method; assay type: organism-based, HOS-TE85; settings: in vivo, 336 h, dose 15-30 mg/kg/day, time 14 day
[27] = Toxicity in BALB/c nude mouse xenograted with human MNNG/HOS cells assessed as morphological change in kidney at 15 to 30 mg/kg/day, po for 14 days by hematoxylin and eosin staining method; assay type: organism-based, HOS-TE85; settings: in vivo, 336 h, dose 15-30 mg/kg/day, time 14 day
[28] = biological target: T1, Platelet-derived growth factor receptor beta (Homo sapiens, UniProt P09619); assay: Inhibition of PDGFRbeta (unknown origin) at 100 nM by caliper mobility shift assay relative to control
T1 sequence (P09619 whole entry): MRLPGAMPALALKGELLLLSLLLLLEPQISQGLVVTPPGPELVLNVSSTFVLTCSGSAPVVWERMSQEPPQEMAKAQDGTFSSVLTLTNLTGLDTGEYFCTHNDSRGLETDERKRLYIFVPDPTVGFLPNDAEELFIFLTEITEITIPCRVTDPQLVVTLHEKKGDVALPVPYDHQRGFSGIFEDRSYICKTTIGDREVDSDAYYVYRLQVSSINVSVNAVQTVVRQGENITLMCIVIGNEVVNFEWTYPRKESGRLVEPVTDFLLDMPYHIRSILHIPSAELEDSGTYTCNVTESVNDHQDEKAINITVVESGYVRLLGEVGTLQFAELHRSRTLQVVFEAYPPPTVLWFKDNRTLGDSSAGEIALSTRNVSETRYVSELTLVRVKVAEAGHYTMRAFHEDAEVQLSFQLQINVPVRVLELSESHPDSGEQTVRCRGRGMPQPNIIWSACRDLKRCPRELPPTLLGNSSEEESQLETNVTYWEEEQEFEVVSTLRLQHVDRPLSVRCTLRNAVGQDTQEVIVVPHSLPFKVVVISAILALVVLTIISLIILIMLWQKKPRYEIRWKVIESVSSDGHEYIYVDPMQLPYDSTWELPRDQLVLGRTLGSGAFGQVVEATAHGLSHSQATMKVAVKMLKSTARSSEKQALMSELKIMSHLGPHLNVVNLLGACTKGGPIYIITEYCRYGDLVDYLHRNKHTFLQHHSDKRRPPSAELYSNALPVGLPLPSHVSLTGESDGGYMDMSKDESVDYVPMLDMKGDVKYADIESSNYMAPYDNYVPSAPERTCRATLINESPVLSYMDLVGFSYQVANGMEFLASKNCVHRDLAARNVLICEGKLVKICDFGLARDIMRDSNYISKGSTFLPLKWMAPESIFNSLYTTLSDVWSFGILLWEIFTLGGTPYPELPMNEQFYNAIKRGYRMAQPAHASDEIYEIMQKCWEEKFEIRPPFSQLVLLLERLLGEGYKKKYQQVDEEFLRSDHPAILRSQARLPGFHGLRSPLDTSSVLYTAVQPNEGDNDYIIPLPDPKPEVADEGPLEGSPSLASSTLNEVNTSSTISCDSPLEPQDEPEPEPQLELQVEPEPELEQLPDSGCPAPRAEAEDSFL

[29] = Toxicity in BALB/c nude mouse xenograted with human MNNG/HOS cells assessed as kidney lesion at 30 mg/kg/day, po for 14 days by hematoxylin and eosin staining method; assay type: organism-based, HOS-TE85; settings: in vivo, 336 h, time 14 day
U2OS = assay: Antiproliferative activity against human U2OS cells assessed as reduction in cell viability incubated for 48 hrs by MTT assay
MG-63 = assay: Antiproliferative activity against human MG-63 cells assessed as reduction in cell viability incubated for 48 hrs by MTT assay; settings: MG-63, 48 h
HOS-TE85 = assay: Antiproliferative activity against human MNNG/HOS cells assessed as reduction in cell viability incubated for 48 hrs by MTT assay; settings: HOS-TE85, 48 h
SAOS-2 = assay: Antiproliferative activity against human SAOS-2 cells assessed as reduction in cell viability incubated for 48 hrs by MTT assay; settings: SAOS-2, 48 h
[30] = biological target: T1, Platelet-derived growth factor receptor beta; assay: Inhibition of PDGFRbeta (unknown origin) by caliper mobility shift assay
CYP2C19 = assay: Inhibition of CYP2C19 in rat liver microsomes at 100 uM using voriconazole as substrate preincubated for 5 min followed by NADPH addition and measured after 40 mins by UHPLC-MS/MS analysis; assay type: ADME, Microsome; settings: probe voriconazole, time 45 min
[31] = biological target: Platelet-derived growth factor receptor alpha (Homo sapiens, UniProt P16234); assay: Inhibition of PDGFRalpha (unknown origin) by caliper mobility shift assay
Platelet-derived growth factor receptor alpha, sequence (P16234 whole entry): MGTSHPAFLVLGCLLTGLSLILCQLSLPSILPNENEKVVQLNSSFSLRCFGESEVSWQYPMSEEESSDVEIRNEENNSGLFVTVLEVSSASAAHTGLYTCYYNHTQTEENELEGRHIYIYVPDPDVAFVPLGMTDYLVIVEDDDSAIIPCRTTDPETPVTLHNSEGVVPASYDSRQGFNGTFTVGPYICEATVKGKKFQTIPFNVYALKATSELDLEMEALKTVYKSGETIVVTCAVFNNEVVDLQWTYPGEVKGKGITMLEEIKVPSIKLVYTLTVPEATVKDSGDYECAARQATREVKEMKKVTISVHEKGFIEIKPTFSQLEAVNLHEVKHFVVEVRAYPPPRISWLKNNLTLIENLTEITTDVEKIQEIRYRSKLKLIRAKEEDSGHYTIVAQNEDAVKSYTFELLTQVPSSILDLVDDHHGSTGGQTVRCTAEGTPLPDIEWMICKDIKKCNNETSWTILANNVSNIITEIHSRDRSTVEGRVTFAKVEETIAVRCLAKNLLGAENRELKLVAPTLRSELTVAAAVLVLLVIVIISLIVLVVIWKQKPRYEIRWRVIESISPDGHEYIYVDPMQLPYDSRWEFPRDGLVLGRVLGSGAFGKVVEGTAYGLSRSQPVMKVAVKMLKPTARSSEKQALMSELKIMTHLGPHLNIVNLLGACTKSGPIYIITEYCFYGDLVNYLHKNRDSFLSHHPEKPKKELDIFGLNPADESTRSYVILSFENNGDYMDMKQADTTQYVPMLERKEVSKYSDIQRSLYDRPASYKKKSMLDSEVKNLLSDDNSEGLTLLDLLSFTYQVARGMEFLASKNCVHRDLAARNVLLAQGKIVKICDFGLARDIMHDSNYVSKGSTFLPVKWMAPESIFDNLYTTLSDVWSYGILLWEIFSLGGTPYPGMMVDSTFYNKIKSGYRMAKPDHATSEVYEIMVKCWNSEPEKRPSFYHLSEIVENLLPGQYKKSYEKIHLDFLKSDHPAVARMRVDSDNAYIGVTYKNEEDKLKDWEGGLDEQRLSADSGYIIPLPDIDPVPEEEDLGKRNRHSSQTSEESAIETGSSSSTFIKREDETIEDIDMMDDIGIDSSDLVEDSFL

CYP2C9 = assay: Inhibition of CYP2C9 in rat liver microsomes at 100 uM using diclofenac as substrate preincubated for 5 min followed by NADPH addition and measured after 40 mins by UHPLC-MS/MS analysis; assay type: ADME, Microsome; settings: probe diclofenac, time 45 min

## CCN1CCN(c2ccc(Nc3ncc(C)c(Nc4ccc5cn[nH]c5c4)n3)cc2OC)CC1.Cl
[1]
  Activity: Non-Toxic
[2]
  Cmax: 78.3 ng/mL
[3]
  Cmax: 75.2 ng/mL
[4]
  half-life: 2.86 h
[5]
  half-life: 2.12 h
[6]
  AUC(0-inf): 211 ng·h/mL
[7]
  AUC(0-inf): 665 ng·h/mL
[8]
  bioavailability: 62.9%
[9]
  Activity: Non-Toxic
[10]
  Activity: Non-Toxic
[11]
  Activity: Non-Toxic
[12]
  Activity: Non-Toxic
[13]
  Activity: Non-Toxic
[14]
  Activity: Non-Toxic
[15]
  Activity: Non-Toxic
[16]
  Activity: Non-Toxic
[17]
  Activity: Non-Toxic
[18]
  Activity: Non-Toxic
[19]
  Activity: Non-Toxic
[20]
  Activity: Non-Toxic
[21]
  Activity: Non-Toxic
[22]
  Activity: Non-Toxic
[23]
  Activity: Non-Toxic
[24]
  Activity: Non-Toxic
[25]
  Activity: Non-Toxic
[26]
  Activity: Non-Toxic
[27]
  Activity: Non-Toxic

## COc1cnc(Nc2ccc(N3CCN(C)CC3)cc2)nc1Nc1ccc2cn[nH]c2c1
[28]
  inhibition: 55%

## Cc1ccc(NC(=O)c2ccc(CN3CCN(C)CC3)cc2)cc1Nc1nccc(-c2cccnc2)n1 [IMATINIB]
[29]
  Activity: Toxic

## CN1CCN(c2ccc(Nc3ncc(F)c(Nc4ccc5cn[nH]c5c4)n3)cc2)CC1
[28]
  inhibition: 94.4%

## CCN1CCN(c2ccc(Nc3ncc(C)c(Nc4ccc5cn[nH]c5c4)n3)cc2)CC1
U2OS
  pIC50: 6.26
MG-63
  pIC50: 6.02
HOS-TE85
  pIC50: 5.85
SAOS-2
  pIC50: 6.02
[30]
  pIC50: 8.12

## Cc1cnc(Nc2ccc(N3CCN(C)CC3)cc2)nc1Nc1ccc2cn[nH]c2c1
[28]
  inhibition: 99.6%

## CN1CCN(c2ccc(Nc3ncc(C(F)(F)F)c(Nc4ccc5cn[nH]c5c4)n3)cc2)CC1
[28]
  inhibition: 81%

## Cc1cnc(Nc2ccc(N3CCC(F)(F)CC3)cc2)nc1Nc1ccc2cn[nH]c2c1
[30]
  pIC50: 7.04

## COc1cc(N2CCC(N3CCN(C)CC3)CC2)ccc1Nc1ncc(C)c(Nc2ccc3cn[nH]c3c2)n1
[30]
  pIC50: 7.25

## CCOC(=O)c1cnc(Nc2ccc(N3CCN(C)CC3)cc2)nc1Nc1ccc2cn[nH]c2c1
[28]
  inhibition: 30.7%

## Cc1cnc(Nc2ccc(N3CCS(=O)(=O)CC3)cc2)nc1Nc1ccc2cn[nH]c2c1
[30]
  pIC50: 7.39

## CN1CCN(c2ccc(Nc3nc(Nc4ccc5cn[nH]c5c4)cc(C(F)(F)F)n3)cc2)CC1
[28]
  inhibition: 3.5%

## Cc1cnc(Nc2ccc(N3CCN(C)CC3)cc2)nc1Nc1cccc2[nH]ccc12
[28]
  inhibition: 90.3%

## Cc1cnc(Nc2ccc(C(=O)N3CCN(C)CC3)cc2)nc1Nc1ccc2cn[nH]c2c1
[30]
  pIC50: 7.32

## Cc1cnc(Nc2ccc(N3CCN(C)CC3)cc2)nc1Nc1ccc2c(c1)CCC2
[28]
  inhibition: 88.9%

## CCN1CCN(c2ccc(Nc3ncc(C)c(Nc4ccc5cn[nH]c5c4)n3)cc2OC)CC1
U2OS
  pIC50: 6.38
CYP2C19
  inhibition at 40 min, 100 µM: 45.6%
MG-63
  pIC50: 6.36
HOS-TE85
  pIC50: 5.99
SAOS-2
  pIC50: 6.43
[31]
  pIC50: 8.62
[30]
  pIC50: 9.05
CYP2C9
  inhibition at 40 min, 100 µM: 45.6%

## COc1cc(Nc2ncc(C)c(Nc3ccc4cn[nH]c4c3)n2)ccc1N1CCN(C)CC1
U2OS
  pIC50: 6.12
MG-63
  pIC50: 6.08
HOS-TE85
  pIC50: 5.87
SAOS-2
  pIC50: 6.14
[30]
  pIC50: 8.34
